Measurements: article PMC10647861, “New Thiazolyl-Pyrazoline Derivatives as Potential Dual EGFR/HER2 Inhibitors: Design, Synthesis, Anticancer Activity Evaluation and In Silico Study” (Molecules, 2023)
Where two headings read alike, the source gives them in different places.

Experiments:
MCF-7 [1] = assay: MTT anti-proliferative assay toward MCF-7; conditions: Homo sapiens, MCF7, 48 h, read-out: IC50 toward MCF-7
Method: Anti-proliferative activities were done using the MTT colorimetric assay [58]. Cell viability was assessed after 48 h, and the viability was calculated relative to the control [59]
Experimental of biological evaluations
Anti-proliferative activities were done using MTT colorimetric assay.
Both cell lines were provided with 10% fetal bovine serum (FBS, Sigma-Aldrich, MO, USA) and 1% penicillin-streptomycin (Lonza, Belgium). Cells were incubated following standard tissue culture work. Cell viability was assessed after 48 h using MTT solution (Promega, USA). Absorbance was subsequently measured (at 570 nm) using ELISA microplate reader (BIO-RAD, model iMark, Japan). The viability was calculated relative to control.
EGFR and HER2 enzyme inhibition
(§1) Measurement of potential EGFR/ HER2 inhibitory activities was performed using EGFR
(§2) following equation was used to determine the proportion of autophosphorylation inhibition by
concentrations for each compound.
Cell cycle analysis and apoptotic assay
MCF-7 cells were seeded into 6-well culture plates (3-5× 10^5 cells/well) and incubated
48 h. Subsequently, cells and medium supernatants were gathered and washed with ice-cold PBS.
The cells were then suspended in 100 µL of the annexin binding buffer solution, which was described as "25 mM CaCl 2, 1.4 M NaCl, and 0.1 M Hepes/NaOH, pH 7.4”. The cell incubation and addition of Annexin V-FITC solution, and propidium iodide (PI) were done according to the reported procedure. Next, the Cytoflex FACS equipment was used to obtain the stained cells. The program CytExpert was used to analyze the data.

EGFR = conditions: cited from earlier work
T-47D cell line = tested on: T-47D cell line; set-up: method as in PMID 37049966; conditions: cited from earlier work
MCF-10A = assay: MTT cytotoxicity assay toward MCF-10A; type: cell-based; conditions: Homo sapiens, 48 h
EGFR Kinase = EGFR Kinase (Homo sapiens, UniProt P00533); assay: EGFR kinase inhibitory assay (BPS Bioscience kit)
Chain of EGFR Kinase (P00533 25-1210): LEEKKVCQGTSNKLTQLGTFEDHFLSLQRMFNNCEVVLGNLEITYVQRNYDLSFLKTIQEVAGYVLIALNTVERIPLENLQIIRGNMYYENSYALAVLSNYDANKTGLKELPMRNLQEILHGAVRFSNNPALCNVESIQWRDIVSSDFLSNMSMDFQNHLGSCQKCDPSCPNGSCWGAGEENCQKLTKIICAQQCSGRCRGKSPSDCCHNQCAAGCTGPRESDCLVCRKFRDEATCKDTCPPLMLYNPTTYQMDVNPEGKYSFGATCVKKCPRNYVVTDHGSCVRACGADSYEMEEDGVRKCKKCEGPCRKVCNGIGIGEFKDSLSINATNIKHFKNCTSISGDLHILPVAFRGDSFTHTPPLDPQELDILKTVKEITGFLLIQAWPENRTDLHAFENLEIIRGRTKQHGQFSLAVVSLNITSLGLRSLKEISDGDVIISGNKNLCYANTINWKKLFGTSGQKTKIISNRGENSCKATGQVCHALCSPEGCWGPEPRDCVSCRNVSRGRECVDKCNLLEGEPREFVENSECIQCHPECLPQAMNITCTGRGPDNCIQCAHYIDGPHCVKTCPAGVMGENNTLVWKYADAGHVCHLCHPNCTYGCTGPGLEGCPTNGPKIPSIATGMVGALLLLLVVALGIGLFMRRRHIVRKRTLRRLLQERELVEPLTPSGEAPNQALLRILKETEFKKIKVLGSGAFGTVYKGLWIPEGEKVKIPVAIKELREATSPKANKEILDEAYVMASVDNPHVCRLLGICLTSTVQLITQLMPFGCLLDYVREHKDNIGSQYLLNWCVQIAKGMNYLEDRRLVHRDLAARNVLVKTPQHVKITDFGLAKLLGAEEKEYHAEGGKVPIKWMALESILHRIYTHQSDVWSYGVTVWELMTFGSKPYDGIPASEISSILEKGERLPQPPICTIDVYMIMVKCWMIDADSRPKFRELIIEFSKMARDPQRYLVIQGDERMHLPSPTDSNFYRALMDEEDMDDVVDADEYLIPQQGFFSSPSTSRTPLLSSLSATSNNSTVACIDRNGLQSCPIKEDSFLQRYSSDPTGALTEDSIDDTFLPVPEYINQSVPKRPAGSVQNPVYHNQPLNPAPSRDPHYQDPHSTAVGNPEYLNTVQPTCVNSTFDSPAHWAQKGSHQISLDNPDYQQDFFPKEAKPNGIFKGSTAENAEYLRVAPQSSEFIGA
Method: Experimental of biological evaluations
EGFR and HER2 enzyme inhibition
as §1, §2
concentrations for each compound.

HER2 Kinase = HER2 Kinase (Homo sapiens, UniProt P04626); assay: HER2 kinase inhibitory assay (BPS Bioscience kit)
Chain of HER2 Kinase (P04626 23-1255): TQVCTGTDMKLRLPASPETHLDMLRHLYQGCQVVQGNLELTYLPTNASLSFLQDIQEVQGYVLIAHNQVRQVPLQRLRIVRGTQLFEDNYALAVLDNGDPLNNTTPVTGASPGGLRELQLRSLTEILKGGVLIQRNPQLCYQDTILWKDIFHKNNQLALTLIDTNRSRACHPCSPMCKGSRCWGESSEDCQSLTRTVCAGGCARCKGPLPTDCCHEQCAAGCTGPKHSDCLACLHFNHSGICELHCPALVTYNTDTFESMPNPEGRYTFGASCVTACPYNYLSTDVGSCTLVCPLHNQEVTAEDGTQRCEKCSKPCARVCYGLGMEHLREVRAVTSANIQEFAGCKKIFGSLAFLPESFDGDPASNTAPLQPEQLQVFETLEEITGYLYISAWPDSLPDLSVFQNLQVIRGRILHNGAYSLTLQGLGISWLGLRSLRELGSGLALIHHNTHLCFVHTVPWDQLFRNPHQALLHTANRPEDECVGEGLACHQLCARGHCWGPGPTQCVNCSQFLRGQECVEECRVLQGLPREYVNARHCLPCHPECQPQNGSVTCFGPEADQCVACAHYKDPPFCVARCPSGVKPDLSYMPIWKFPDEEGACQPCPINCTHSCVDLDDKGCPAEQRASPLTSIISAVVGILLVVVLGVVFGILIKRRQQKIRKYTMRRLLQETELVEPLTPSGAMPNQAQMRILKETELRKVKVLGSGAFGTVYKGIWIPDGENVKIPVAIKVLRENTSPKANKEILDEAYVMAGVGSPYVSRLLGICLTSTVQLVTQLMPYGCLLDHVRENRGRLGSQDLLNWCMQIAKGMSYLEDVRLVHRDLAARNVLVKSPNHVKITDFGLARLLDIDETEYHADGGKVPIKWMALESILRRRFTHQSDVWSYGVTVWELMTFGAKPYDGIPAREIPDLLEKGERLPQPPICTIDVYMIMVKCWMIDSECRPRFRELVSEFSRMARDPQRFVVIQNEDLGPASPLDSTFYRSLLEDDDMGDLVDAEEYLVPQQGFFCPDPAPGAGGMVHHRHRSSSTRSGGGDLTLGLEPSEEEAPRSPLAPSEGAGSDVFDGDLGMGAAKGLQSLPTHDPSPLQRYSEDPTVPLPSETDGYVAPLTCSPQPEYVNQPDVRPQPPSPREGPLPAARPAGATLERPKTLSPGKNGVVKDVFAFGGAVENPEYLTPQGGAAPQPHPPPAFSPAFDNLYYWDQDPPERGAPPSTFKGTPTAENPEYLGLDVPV
Method: Experimental of biological evaluations
EGFR and HER2 enzyme inhibition
as §1, §2
concentrations for each compound.

MCF-7 [2] = assay: Cell cycle analysis in MCF-7; type: cell-based; conditions: for DNA Content %G0-G1 / DNA Content %G2/M / DNA Content %S: MCF-7, compound at its IC50, 48 h
MCF-7 cells = assay: Annexin V/PI apoptosis analysis in MCF-7; type: cell-based; conditions: MCF-7, compound at its IC50, 48 h
MCF-7 [3] = conditions: cited from earlier work
HER2 = conditions: cited from earlier work
A549 = tested on: A549; set-up: method as in PMID 21802290; conditions: cited from earlier work

With `COc1ccc(C2CC(c3ccc(OC)c(OC)c3)=NN2c2nc(C)c(N=Nc3ccc(Cl)cc3)s2)cc1` (centres unmarked) [Compound 4a, 5-((4-Chlorophenyl)diazenyl)-2-(3-(3,4-dimethoxyphenyl)-5-(4-methoxyphenyl)-4,5-dihydro-1H-pyrazol-1-yl)-4-methylthiazole] the IC50 (MCF-7 [1]) was 18.6 ± 0.19 µM and the melting point was 192 to 194 °C.

For `Cc1ccc(C2=NN(C3=NC(=O)/C(=C/c4ccc(O)cc4)S3)C(c3ccc(F)cc3)C2)cc1` (centres unmarked) [VI], the IC50 (EGFR) is listed as 0.083 µM and the IC50 (T-47D cell line) is listed as 1.15 µM.

Compound `COc1ccc(C2=NN(C3=NC(=O)C(=C4C(=O)Nc5ccccc54)S3)C(c3ccc(Cl)cc3)C2)cc1OC` (centres unmarked) [Compound 8b, 2-(5-(4-Chlorophenyl)-3-(3,4-dimethoxyphenyl)-4,5-dihydro-1H-pyrazol-1-yl)-5-(2-oxoindolin-3-ylidene)thiazol-4(5H)-one] has an IC50 (MCF-7 [1]) of 19.5 ± 0.27 µM and a melting point of over 300 °C.

In the case of `COc1ccc(C2=NN(c3nc(C)c(N=Nc4ccc(S(N)(=O)=O)cc4)s3)C(c3ccc(Cl)cc3)C2)cc1OC` (centres unmarked) [Compound 4d, 4-((2-(5-(4-Chlorophenyl)-3-(3,4-dimethoxyphenyl)-4,5-dihydro-1H-pyrazol-1-yl)-4-methylthiazol-5-yl)diazenyl)benzenesulfonamide], the IC50 (MCF-7 [1]) is reported as 17.1 ± 0.21 µM and the melting point is reported as 208 to 210 °C.

Work on `COc1ccc(C2=NN(c3nc(-c4cc5ccccc5oc4=O)cs3)C(c3ccc(Cl)cc3)C2)cc1OC` (centres unmarked) [Compound 10b, 3-(2-(5-(4-Chlorophenyl)-3-(3,4-dimethoxyphenyl)-4,5-dihydro-1H-pyrazol-1-yl)thiazol-4-yl)-2H-chromen-2-one] yielded an IC50 (MCF-10A) of 27.1 ± 1.98 µM, an IC50 (MCF-7 [1]) of 3.54 ± 0.07 µM and a melting point of 238 to 240 °C. It also gave an IC50 (EGFR Kinase) of 0.029 ± 0.004 µM and an IC50 (HER2 Kinase) of 0.065 ± 0.007 µM.

For `COc1ccc(C2CC(c3ccc(OC)c(OC)c3)=NN2C2=NC(=O)CS2)cc1` (centres unmarked) [Compound 6a, 2-(3-(3,4-Dimethoxyphenyl)-5-(4-methoxyphenyl)-4,5-dihydro-1H-pyrazol-1-yl)thiazol-4(5H)-one], the IC50 (MCF-10A) was at least 50 µM, the “DNA Content %G0-G1” value (MCF-7 [2]) was 69.82% and the “DNA Content %G2/M” value (MCF-7 [2]) was 8.12%. For the same compound, the “DNA Content %S” value (MCF-7 [2]) was 22.06%, the “Apoptosis Early” value (MCF-7 cells) was 28.17% and the “Apoptosis Late” value (MCF-7 cells) was 17.98%. For the same compound, the Necrosis (MCF-7 cells) was 4.88%, the IC50 (MCF-7 [1]) was 4.08 ± 0.08 µM and the IC50 (EGFR Kinase) was 0.024 ± 0.005 µM. For the same compound, the IC50 (HER2 Kinase) was 0.047 ± 0.008 µM.

`COc1ccc(C2=NN(c3nc(C)c(N=Nc4ccc(Cl)cc4)s3)C(c3ccc(Cl)cc3)C2)cc1OC` (centres unmarked) [Compound 4c, 2-(5-(4-Chlorophenyl)-3-(3,4-dimethoxyphenyl)-4,5-dihydro-1H-pyrazol-1-yl)-5-((4-chlorophenyl)diazenyl)-4-methylthiazole] showed an IC50 (MCF-7 [1]) of 18.7 ± 0.22 µM and a melting point of 210 to 212 °C.

`COc1ccc(C2=NN(C3=NC(=O)C(=NNc4ccc(S(N)(=O)=O)cc4)S3)C(c3ccc(Cl)cc3)C2)cc1OC` (centres unmarked) [Compound 5d, 4-(2-(2-(5-(4-Chlorophenyl)-3-(3,4-dimethoxyphenyl)-4,5-dihydro-1H-pyrazol-1-yl)-4-oxothiazol-5(4H)-ylidene)hydrazineyl)benzenesulfonamide] gave an IC50 (MCF-7 [1]) of 25.7 ± 0.12 µM and a melting point of 292 to 294 °C.

`COc1ccc(C2CC(c3ccc(OC)c(OC)c3)=NN2c2nc(C)c(N=Nc3ccc(S(N)(=O)=O)cc3)s2)cc1` (centres unmarked) [Compound 4b, 4-((2-(3-(3,4-Dimethoxyphenyl)-5-(4-methoxyphenyl)-4,5-dihydro-1H-pyrazol-1-yl)-4-methylthiazol-5-yl)diazenyl)benzenesulfonamide] showed an IC50 (MCF-7 [1]) of 17.12 ± 0.15 µM and a melting point of 200 to 202 °C.

For `COc1ccc(C2CC(c3ccc(OC)c(OC)c3)=NN2c2nc(-c3ccccc3)cs2)cc1` (centres unmarked) [IV], the IC50 (MCF-7 [3]) is listed as 7.21 µM, the IC50 (HER2) is listed as 0.013 µM and the IC50 (EGFR) is listed as 0.009 µM.

For `COc1ccc(C2=NN(C3=NC(=O)CS3)C(c3ccc(Cl)cc3)C2)cc1OC` (centres unmarked) [Compound 6b, 2-(5-(4-Chlorophenyl)-3-(3,4-dimethoxyphenyl)-4,5-dihydro-1H-pyrazol-1-yl)thiazol-4(5H)-one], the IC50 (MCF-10A) was 32.8 ± 1.27 µM, the IC50 (MCF-7 [1]) was 5.64 ± 0.11 µM and the melting point was 208 to 210 °C. For the same compound, the IC50 (EGFR Kinase) was 0.026 ± 0.002 µM and the IC50 (HER2 Kinase) was 0.081 ± 0.006 µM.

`COc1ccc(C2CC(c3ccc(OC)c(OC)c3)=NN2C2=NC(=O)C(=NNc3ccc(S(N)(=O)=O)cc3)S2)cc1` (centres unmarked) [Compound 5b, 4-(2-(2-(3-(3,4-Dimethoxyphenyl)-5-(4-methoxyphenyl)-4,5-dihydro-1H-pyrazol-1-yl)-4-oxothiazol-5(4H)-ylidene)hydrazineyl)benzenesulfonamide] gave an IC50 (MCF-7 [1]) of 27.31 ± 0.26 µM and a melting point of 249 to 251 °C.

In the case of `COc1ccc(C2CC(c3ccc(OC)c(OC)c3)=NN2C2=NC(=O)C(=C3C(=O)Nc4ccccc43)S2)cc1` (centres unmarked) [Compound 8a, 2-(3-(3,4-Dimethoxyphenyl)-5-(4-methoxyphenyl)-4,5-dihydro-1H-pyrazol-1-yl)-5-(2-oxoindolin-3-ylidene)thiazol-4(5H)-one], the IC50 (MCF-7 [1]) is reported as 21.33 ± 0.21 µM and the melting point is reported as over 300 °C.

For `Cc1ccc(C2=NN(c3nc(-c4ccc(Cl)cc4)cs3)C(c3ccc(F)cc3)C2)cc1C` (centres unmarked) [I], the IC50 (MCF-7 [3]) is given as 0.07 µM and the IC50 (EGFR) is given as 0.06 µM.

With `COc1ccc(C2CC(c3ccc(OC)c(OC)c3)=NN2c2nc(-c3cc4ccccc4oc3=O)cs2)cc1` (centres unmarked) [Compound 10a, 3-(2-(3-(3,4-Dimethoxyphenyl)-5-(4-methoxyphenyl)-4,5-dihydro-1H-pyrazol-1-yl)thiazol-4-yl)-2H-chromen-2-one] the IC50 (MCF-10A) was at least 50 µM, the “DNA Content %G0-G1” value (MCF-7 [2]) was 66.41% and the “DNA Content %G2/M” value (MCF-7 [2]) was 4.04%. The “DNA Content %S” value (MCF-7 [2]) was 29.55%, the “cell accumulation at S phase relative to control” value (MCF-7 [2]; MCF-7, compound at its IC50, control 26.33%) was 1.12 folds and the “cell accumulation at G0-G1 relative to control” value (MCF-7 [2]; MCF-7, compound at its IC50, control 62.59%) was 1.06 folds. For the same compound, the “Apoptosis Early” value (MCF-7 cells) was 19.22%, the “Apoptosis Late” value (MCF-7 cells) was 15.91% and the Necrosis (MCF-7 cells) was 7.53%. The IC50 (MCF-7 [1]) was 3.37 ± 0.13 µM, the IC50 (EGFR Kinase) was 0.005 ± 0.002 µM and the IC50 (HER2 Kinase) was 0.022 ± 0.005 µM.

In the case of `COc1ccc(C2CC(c3ccc(Cl)cc3Cl)=NN2c2nc(C)c(C(=O)Nc3ccccc3)s2)cc1OC` (centres unmarked) [II], the IC50 (A549) is listed as 2.92 µM and the IC50 (EGFR) is listed as 0.032 µM.

Compound `COc1ccc(C2=NN(C3=NC(=O)C(=NNc4ccc(Cl)cc4)S3)C(c3ccc(Cl)cc3)C2)cc1OC` (centres unmarked) [Compound 5c, 2-(5-(4-Chlorophenyl)-3-(3,4-dimethoxyphenyl)-4,5-dihydro-1H-pyrazol-1-yl)-5-(2-(4-chlorophenyl)hydrazineylidene)thiazol-4(5H)-one] has an IC50 (MCF-7 [1]) of 28.03 ± 0.25 µM and a melting point of 278 to 280 °C.

`COc1ccc(C2CC(c3ccc(OC)c(OC)c3)=NN2C2=NC(=O)C(=NNc3ccc(Cl)cc3)S2)cc1` (centres unmarked) [Compound 5a, 5-(2-(4-Chlorophenyl)hydrazineylidene)-2-(3-(3,4-dimethoxyphenyl)-5-(4-methoxyphenyl)-4,5-dihydro-1H-pyrazol-1-yl)thiazol-4(5H)-one] showed an IC50 (MCF-7 [1]) of 30.24 ± 0.24 µM.

For `Brc1ccc(C2=NN(c3nc(-c4ccc(Br)cc4)cs3)C(c3ccc4c(c3)OCO4)C2)cc1` (centres unmarked) [III], the IC50 (MCF-7 [3]) is given as 0.09 µM and the IC50 (HER2) is given as 0.18 µM.

For `CS(=O)(=O)CCNCc1ccc(-c2ccc3ncnc(Nc4ccc(OCc5cccc(F)c5)c(Cl)c4)c3c2)o1` [Lapatinib, reference compound], the IC50 (MCF-10A) was at least 50 µM and the IC50 (MCF-7 [1]) was 5.88 ± 0.04 µM.

For `COc1ccc(C=C2SC(N3N=C(c4ccc(OC)c(OC)c4)CC3c3ccc(Cl)cc3)=NC2=O)cc1` (centres unmarked) [Compound 7d, 2-(5-(4-Chlorophenyl)-3-(3,4-dimethoxyphenyl)-4,5-dihydro-1H-pyrazol-1-yl)-5-(4-methoxybenzylidene)thiazol-4(5H)-one], the IC50 (MCF-7 [1]) was 20.17 ± 0.19 µM and the melting point was 250 to 252 °C.

`COc1ccc(C2CC(c3ccc(OC)c(OC)c3)=NN2C2=NC(=O)C(=Cc3ccccc3)S2)cc1` (centres unmarked) [Compound 7a, 5-Benzylidene-2-(3-(3,4-dimethoxyphenyl)-5-(4-methoxyphenyl)-4,5-dihydro-1H-pyrazol-1-yl)thiazol-4(5H)-one] showed an IC50 (MCF-7 [1]) of 17.79 ± 0.14 µM and a melting point of 294 to 296 °C.

In the case of `COc1ccc2nc(Cl)c(C3CC(c4ccc(C)cc4)=NN3c3nc(-c4ccc(F)cc4)cs3)cc2c1` (centres unmarked) [V], the IC50 (MCF-7 [3]) is given as 0.227 µM and the IC50 (EGFR) is given as 0.031 µM.

For `COc1ccc(C2=NN(C3=NC(=O)C(=Cc4ccccc4)S3)C(c3ccc(Cl)cc3)C2)cc1OC` (centres unmarked) [Compound 7c, 5-Benzylidene-2-(5-(4-chlorophenyl)-3-(3,4-dimethoxyphenyl)-4,5-dihydro-1H-pyrazol-1-yl)thiazol-4(5H)-one], the IC50 (MCF-7 [1]) was 21.2 ± 0.24 µM and the melting point was 283 to 285 °C.

For `COc1ccc(C=C2SC(N3N=C(c4ccc(OC)c(OC)c4)CC3c3ccc(OC)cc3)=NC2=O)cc1` (centres unmarked) [Compound 7b, 2-(3-(3,4-Dimethoxyphenyl)-5-(4-methoxyphenyl)-4,5-dihydro-1H-pyrazol-1-yl)-5-(4-methoxybenzylidene)thiazol-4(5H)-one], the IC50 (MCF-7 [1]) was 20 ± 0.22 µM and the melting point was 245 to 247 °C.
